Reference: patent EP0022621A1, “Peptides related to somatostatin, their preparation and pharmaceutical compositions containing them” (ELI LILLY AND COMPANY, priority 1979, dated 1981)
Several values for one entry are separate records, joined by “and”; a condition that tells them apart may be missing. Equal entries are not always repeated. Positions of bridges follow the written chain, without caps; N, C: chain ends. No end group written: not given here.

Assays:
[1] = tested on: glucagon; assay: Insulin and Glucagon Inhibition In Dogs (L-alanine stimulation, serum glucagon by radioimmunoassay); assay type: in vivo, dog; conditions: for Result: inhibition of glucagon: fasted dog, L-alanine infusion; for inhibition of secretion of glucagon: dog stimulated with L-alanine, dose not stated
Experimental: (§1) B. Insulin and Glucagon Inhibition In Dogs:
(§2) A normal dog is fasted overnight. An intravenous (I.V.) infusion of the test compound (dissolved in saline) is begun. Thirty minutes thereafter an additional infusion of L-alanine (dissolved in saline) is begun and is continued for a total of 15 minutes so that a total dose of about 1 mmole of L-alanine per kg. body weight is given. Infusion of the test compound is continued for an additional 15 minute period.
(§3) Blood samples are taken periodically before (at -20, -10 and -1 minutes) and after (5, 10, 15, 30, 35, 40, 45, 50, 60, 90, 120 and 150 minutes) the start of the infusion of the test compound. The serum insulin and serum glucagon concentrations in the blood are determined by radioimmunoassay. A plot is made of the glucagon and insulin concentrations versus time. The plot obtained from the test compound is compared to plots obtained from somatostatin and saline (controls) in similar experiments.
(§4) Infusion of L-alanine (in the absence of somatostatin or active test compound) causes an abrupt increase in serum insulin and glucagon concentrations. The concentrations return to basal levels after the L-alanine infusion is terminated. Infusion of somatostatin (alone) causes a decrease in basal serum concentrations of insulin and glucagon.

[2] = tested on: insulin; assay: Insulin and Glucagon Inhibition In Dogs (L-alanine stimulation, serum insulin by radioimmunoassay); assay type: in vivo, dog; conditions: for Result: inhibition of insulin: fasted dog, L-alanine infusion; for inhibition of secretion of insulin: dog stimulated with L-alanine, dose not stated
Experimental: as §1, §2, §3, §4

[3] = tested on: growth hormone (GH) secretion; assay: Growth Hormone Inhibition In Rats (pentobarbital-stimulated GH secretion, serum GH by radioimmunoassay); assay type: in vivo; conditions: for GH Serum Conc.: male rats, sodium pentobarbital 4 mg/rat I.P., 20 minutes, Mean ± SEM; for % Inhibition: inhibition of GH release compared to saline controls
Experimental: A. Growth Hormone Inhibition In Rats:
This test is a modification of the method of P. Brazeau et al. Endocrinology, 94, 184 (1974). Male rats (weighing 100-110 g.) are divided into three groups of eight rats each. Each rat is administered sodium pentobarbital at a dose of 4 mg/rat (I.P.) to stimulate growth hormone (GH) secretion. Simultaneously, one group of rats receives the test compound (S.C.); the second group receives somatostatin (S.C.); and the third group (control) receives saline (S.C.). Twenty- minutes later, the animals are decapitated and blood samples are collected. The serum concentration of growth hormone (GH) is determined by'radioimmunoassay. The mean GH concentration (+ standard error of the mean) is calculated for each group. The percent inhibition of GH release (as compared to saline controls) is then calculated for the test compound and for somatostatin. When tested as above-described, the peptides of Examples 2, 4, 6, 8 and 10, representative of the peptides of Formula III, gave the results set forth below in Table I: […]

[4] = I.V. infusion dose 0.06 µg/kg/min
[5] = infusion alone, without L-alanine, dog
[6] = I.V. infusion dose 0.20 µg/kg/min
[7] = I.V. infusion dose 0.05 µg/kg/min
[8] = I.V. infusion dose 0.098, 0.181, 0.291 µg/kg/min

Substance	GH Serum Conc. ([3]; dose 2 µg/kg S.C.)	GH Serum Conc. ([3]; dose 50 µg/kg S.C.)	% Inhibition ([3]; dose 2 µg/kg S.C.)	% Inhibition ([3]; dose 50 µg/kg S.C.)	inhibition of secretion of glucagon [1]	inhibition of secretion of insulin [2]	Result: inhibition of glucagon [1, 7]	Result: inhibition of insulin [2, 7]	other results
D-Seryl-glycyl-L-cysteinyl-L-lysyl-L-alanyl-L- phenylalanyl-L-phenylalanyl-D-tryptophyl-L-lysyl-L-threonyl-L-cyclohexylalanyl-L-threonyl-L-seryl-D- cysteine cyclic (3 -> 14) disulfide [Example 10]	68.8 ± 28.2 ng/mL	2.2 ± 0.1 ng/mL	34%	98%	–	–	–	–	Result: inhibition of glucagon [1, 4]: Partial inhibition of glucagon and insulatum.; Result: inhibition of insulin [2, 4]: Partial inhibition of glucagon and insulatum.
Somatostatin (AGCKNFFWKTFTSC; disulfide 3-14 (inferred); ends not checked; UniProt P61278 103-116, looked up) [reference compound]	–	–	–	86.7% and 52.5% and 57.9% and 91% and 93% and 64% and 98%	inhibits the increase	inhibits the increase	–	–	basal serum concentration of glucagon [1, 5]: decrease; basal serum concentration of insulin [2, 5]: decrease
D-Seryl-glycyl-L-cysteinyl-L-lysyl-L-alanyl-L-phenylalanyl-L-phenylalanyl-D-tryptophyl-L-lysyl-L-threonyl-D-phenylalanyl-L-threonyl-L-seryl-D-cysteine cyclic (3 -> 14) 4isulfide [Example 8]	79.6 ± 36.2 ng/mL	40.0 ± 13.4 ng/mL	0%	39%	did not inhibit	did not inhibit	–	–	Result: inhibition of glucagon [1, 6]: No inhibition of glucagon and insulin; Result: inhibition of insulin [2, 6]: No inhibition of glucagon and insulin
D-Seryl-glycyl-L-cysteinyl-L-lysyl-L-alanyl-L-phenylalanyl-L-phenylalanyl-D-tryptophyl-L-lysyl-L-threonyl-L-phenylalanyl-L-threonyl-L-seryl-D-cysteine cyclic (3 -> 14) disulfide [Example 6]	15.5 ± 5.4 ng/mL	4.0 ± 0.5 ng/mL	79%	95%	–	–	Significant inhibition of glucagon and insulin	Significant inhibition of glucagon and insulin	–
D-Alanyl-glycyl-L-cysteinyl-L-lysyl-D-alanyl-L-phenylalanyl-L-phenylalanyl-D-tryptophyl-L-lysyl-L-threonyl-L-cyclohexylalanyl-L-threonyl-L-seryl-D-cysteine cyclic (3 -> 14) disulfide [Example 4]	5.5 ± 0.7 ng/mL	8.4 ± 3.4 ng/mL	95%	92%	did not inhibit	did not inhibit	No inhibition of glucagon and insulin	No inhibition of glucagon and insulin	–
D-Alanyl-glycyl-L-cysteinyl-L-lysyl-D-alanyl-L-phenylalanyl-L-phenylalanyl-D-tryptophyl-L-lysyl-L-threonyl-L-phenylalanyl-L-threonyl-L-seryl-D-cysteine cyclic (3 -> 14) disulfide [Example 2]	7.1 ± 3.8 ng/mL	2.0 ± 0.3 ng/mL	94.9%	98.6%	did not inhibit	did not inhibit	–	–	Result: inhibition of glucagon [1, 8]: No inhibition of glucagon and insulin; Result: inhibition of insulin [2, 8]: No inhibition of glucagon and insulin; GH Serum Conc. ([3]; dose 0.25 µg/kg S.C.): 51.0 ± 14.1 ng/mL; GH Serum Conc. ([3]; dose 1 µg/kg S.C.): 30.6 ± 16.0 ng/mL; GH Serum Conc. ([3]; dose 2.5 µg/kg S.C.): 14.8 ± 10.9 ng/mL; GH Serum Conc. ([3]; dose 25 µg/kg S.C.): 2.8 ± 0.2 ng/mL; % Inhibition ([3]; dose 0.25 µg/kg S.C.): 37.4%; % Inhibition ([3]; dose 1 µg/kg S.C.): 79.8%; % Inhibition ([3]; dose 2.5 µg/kg S.C.): 81.8%; % Inhibition ([3]; dose 25 µg/kg S.C.): 98.2%
